target: PI3Kβ (Homo sapiens (Human), UniProt P42338); experiment: PI3K isoform TR-FRET enzymatic assay (PI3Kβ); assay type: biochemical; conditions: 2× Km ATP, 30 minutes at 25° C.
In short: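 Heterodimeric recombinant PI3Kβ was incubated with compound 30 minutes at 25° C. Product was detected by TR-FRET competition with 10 nM labeled PIP3 for 35 nM Eu-GRP-1 PH domain after EDTA stop. Data were normalized to 1 μM wortmannin and DMSO, and IC50 was taken from a four-parameter fit.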

Sequence of PI3Kβ (P42338 whole entry, the tested form may be a part, canonical isoform): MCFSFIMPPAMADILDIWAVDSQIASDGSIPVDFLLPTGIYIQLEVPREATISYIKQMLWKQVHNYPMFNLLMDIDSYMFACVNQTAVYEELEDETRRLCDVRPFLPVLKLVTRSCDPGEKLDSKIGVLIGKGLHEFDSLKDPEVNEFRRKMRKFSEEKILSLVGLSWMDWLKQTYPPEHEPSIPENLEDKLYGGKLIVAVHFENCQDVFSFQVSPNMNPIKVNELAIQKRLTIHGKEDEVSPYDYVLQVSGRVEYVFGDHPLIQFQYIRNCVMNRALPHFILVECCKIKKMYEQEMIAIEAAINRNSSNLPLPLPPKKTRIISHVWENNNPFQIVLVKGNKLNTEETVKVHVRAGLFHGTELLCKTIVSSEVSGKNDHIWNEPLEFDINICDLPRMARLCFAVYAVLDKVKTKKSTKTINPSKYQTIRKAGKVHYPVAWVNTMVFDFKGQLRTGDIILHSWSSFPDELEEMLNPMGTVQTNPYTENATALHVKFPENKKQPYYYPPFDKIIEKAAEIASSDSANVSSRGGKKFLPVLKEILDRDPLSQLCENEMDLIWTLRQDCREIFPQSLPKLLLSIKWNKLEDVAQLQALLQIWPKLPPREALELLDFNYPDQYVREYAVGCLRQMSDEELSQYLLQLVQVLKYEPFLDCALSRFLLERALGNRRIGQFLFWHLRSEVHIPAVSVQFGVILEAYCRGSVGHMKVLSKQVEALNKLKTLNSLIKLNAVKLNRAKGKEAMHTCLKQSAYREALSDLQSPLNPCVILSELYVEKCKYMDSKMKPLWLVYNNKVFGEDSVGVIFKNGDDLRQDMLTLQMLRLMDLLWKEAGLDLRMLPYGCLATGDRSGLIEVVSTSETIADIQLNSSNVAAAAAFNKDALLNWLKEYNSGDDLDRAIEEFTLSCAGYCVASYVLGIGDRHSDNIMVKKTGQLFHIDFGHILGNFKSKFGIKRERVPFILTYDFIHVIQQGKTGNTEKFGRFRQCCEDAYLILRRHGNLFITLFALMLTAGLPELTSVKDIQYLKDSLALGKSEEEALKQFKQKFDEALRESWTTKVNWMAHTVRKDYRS
Sequence of PI3Kβ (P27986 whole entry partner, the tested form may be a part, canonical isoform): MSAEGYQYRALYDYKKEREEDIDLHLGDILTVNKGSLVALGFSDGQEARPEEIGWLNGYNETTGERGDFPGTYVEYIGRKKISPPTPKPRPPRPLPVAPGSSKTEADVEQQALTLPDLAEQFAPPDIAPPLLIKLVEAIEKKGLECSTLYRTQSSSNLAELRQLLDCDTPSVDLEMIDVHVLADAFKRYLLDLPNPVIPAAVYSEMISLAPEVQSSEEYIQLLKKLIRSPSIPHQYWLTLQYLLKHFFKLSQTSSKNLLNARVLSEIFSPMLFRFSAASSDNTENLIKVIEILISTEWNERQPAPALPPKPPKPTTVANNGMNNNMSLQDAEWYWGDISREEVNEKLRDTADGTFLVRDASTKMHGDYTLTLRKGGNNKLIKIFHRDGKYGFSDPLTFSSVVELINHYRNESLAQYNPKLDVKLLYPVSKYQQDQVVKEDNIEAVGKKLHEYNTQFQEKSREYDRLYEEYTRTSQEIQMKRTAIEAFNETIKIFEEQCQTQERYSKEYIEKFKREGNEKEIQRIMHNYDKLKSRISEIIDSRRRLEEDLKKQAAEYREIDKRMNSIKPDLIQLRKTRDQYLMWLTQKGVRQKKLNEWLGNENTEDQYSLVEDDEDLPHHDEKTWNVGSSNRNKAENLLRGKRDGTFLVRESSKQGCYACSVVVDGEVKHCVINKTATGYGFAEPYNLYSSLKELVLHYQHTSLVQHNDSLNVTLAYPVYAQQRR

| IC50 [nM] | SMILES |
| --- | --- |
| 16 | Cc1nnc(-c2cc(N3CCOCC3)cc3c2nc(C)n3-c2cc(N3CCNCC3)nc3ccccc23)[nH]1 [Example 169, 4-(2-methyl-4-(5-methyl-4H-1,2,4-triazol-3-yl)-1-(2-(piperazin-1-yl)quinolin-4-yl)-1H-benzo[d]imidazol-6-yl)morpholine] |
| 16 | Cc1nc2c(-c3nnc[nH]3)c(F)c(N3CCOCC3)cc2n1-c1ccnc2c(Cl)cccc12 [Example 86, 4-[3-(8-chloroquinolin-4-yl)-6-fluoro-2-methyl-7-(4H-1,2,4-triazol-3-yl)benzimidazol-5-yl]morpholine] |
| 24 | Fc1ccc(Cl)c2c(-n3cnc4c(-c5nnc[nH]5)cc(N5CCOCC5)cc43)ccnc12 [Example 96, 4-[3-(5-chloro-8-fluoroquinolin-4-yl)-7-(4H-1,2,4-triazol-3-yl)benzimidazol-5-yl]morpholine] |
| 21 | CCc1nc2c(-c3nnc(C)[nH]3)cc(N3CCOCC3)cc2n1-c1ccnc2c(Cl)cccc12 [Example 133, 4-[3-(8-chloroquinolin-4-yl)-2-ethyl-7-(5-methyl-4H-1,2,4-triazol-3-yl)benzimidazol-5-yl]morpholine] |
| 13 | Cc1nc2c(-c3cc[nH]c3)cc(N3CCOCC3)cc2n1-c1ccnc2c(Cl)cccc12 [Example 263, 4-[3-(8-chloroquinolin-4-yl)-2-methyl-7-(1H-pyrrol-3-yl)benzimidazol-5-yl]morpholine] |
| > 10000 | CCCc1nc2c(-c3ccn[nH]3)cc(N3CCOCC3)cc2n1-c1ccnc2c(F)ccc(F)c12 (atropisomer, axis not shown) [Compound 369, 4-(1-(5,8-difluoroquinolin-4-yl)-2-propyl-4-(1H-pyrazol-5-yl)-1H-benzo[d]imidazol-6-yl)morpholine] |
| 5200 | Cc1nc2c(-c3cccnc3)cc(N3CCOCC3)cc2n1-c1ccnc2c(-c3cccnc3)cccc12 [Example 318, 4-[2-methyl-7-pyridin-3-yl-3-(8-pyridin-3-ylquinolin-4-yl)benzimidazol-5-yl]morpholine] |
| 11 | CCc1nc2c(-c3ncco3)cc(N3CCOCC3)cc2n1-c1ccnc2c(Cl)c(F)ccc12 [Example 218, 4-[3-(8-chloro-7-fluoroquinolin-4-yl)-2-ethyl-7-(1,3-oxazol-2-yl)benzimidazol-5-yl]morpholine] |
| 23 | Cc1nnc(-c2cc(N3CCOCC3)cc3c2nc(C)n3-c2ccnc3c(Cl)cccc23)[nH]1 [Example 129, 4-[3-(8-chloroquinolin-4-yl)-2-methyl-7-(5-methyl-4H-1,2,4-triazol-3-yl)benzimidazol-5-yl]morpholine] |
| 42 | Cc1nc2c(-c3nnc(Cl)[nH]3)cc(N3CCOCC3)cc2n1-c1ccnc2c(F)ccc(F)c12 [Example 180, 4-[7-(5-chloro-4H-1,2,4-triazol-3-yl)-3-(5,8-difluoroquinolin-4-yl)-2-methylbenzimidazol-5-yl]morpholine] |
| 42 | CCCc1nc2c(-c3nnc(C)[nH]3)cc(N3CCOCC3)cc2n1-c1ccnc2c(Cl)ccc(F)c12 [Example 11, 4-(1-(8-chloro-5-fluoroquinolin-4-yl)-4-(5-methyl-4H-1,2,4-triazol-3-yl)-2-propyl-1H-benzo[d]imidazol-6-yl)morpholine] |
| 14 | Cc1nc2c(-c3cnc[nH]3)cc(N3CCOCC3)cc2n1-c1ccnc2c(F)cccc12 [Example 208, 4-[3-(8-fluoroquinolin-4-yl)-7-(1H-imidazol-5-yl)-2-methylbenzimidazol-5-yl]morpholine] |
| > 10000 | Fc1ccc(F)c2c(-n3c(C4CC4)nc4c(-c5cnc(Cl)[nH]5)cc(N5CCOCC5)cc43)ccnc12 (atropisomer, axis not shown) [Compound 342, 4-[7-(2-chloro-1H-imidazol-5-yl)-2-cyclopropyl-3-(5,8-difluoroquinolin-4-yl)benzimidazol-5-yl]morpholine] |
| 6800 | CCc1nc2c(-c3ncc[nH]3)cc(N3CCOCC3)cc2n1-c1ccnc2c(F)ccc(F)c12 (atropisomer, axis not shown) [Compound 371, 4-(1-(5,8-difluoroquinolin-4-yl)-2-ethyl-4-(1H-imidazol-2-yl)-1H-benzo[d]imidazol-6-yl)morpholine] |
| 43 | Cc1nc2c(-c3nnc(C4CC4)[nH]3)cc(N3CCOCC3)cc2n1-c1ccnc2c(Cl)cccc12 [Example 135, 4-[3-(8-chloroquinolin-4-yl)-7-(5-cyclopropyl-4H-1,2,4-triazol-3-yl)-2-methylbenzimidazol-5-yl]morpholine] |
| 27 | Cc1cc(-n2c(C)nc3c(-c4cnc[nH]4)cc(N4CCOCC4)cc32)c2cccc(F)c2n1 [Example 210, 4-[3-(8-fluoro-2-methylquinolin-4-yl)-7-(1H-imidazol-5-yl)-2-methylbenzimidazol-5-yl]morpholine] |
| 5 | CCCc1nc2c(-c3ncco3)cc(N3CCOCC3)cc2n1-c1ccnc2c(F)ccc(F)c12 (atropisomer, axis not shown) [Compound 357, 4-[3-(5,8-difluoroquinolin-4-yl)-7(1,3-oxazol-2-yl)-2-propylbenzimidazol-5-yl]morpholine] |

| IC50 [nM] | SMILES |
| --- | --- |
| 120 | Cc1nc2c(-c3cn(C)cn3)cc(N3CCOCC3)cc2n1-c1ccnc2c(Cl)cccc12 [Example 203, 4-[3-(8-chloroquinolin-4-yl)-2-methyl-7-(1-methylimidazol-4-yl)benzimidazol-5-yl]morpholine] |
| 280 | Cc1nnc(-c2cc(N3CCOCC3)cc3c2ncn3-c2ccnc3cc(F)ccc23)[nH]1 [Example 22, 4-(1-(7-fluoroquinolin-4-yl)-4-(5-methyl-4H-1,2,4-triazol-3-yl)-1H-benzo[d]imidazol-6-yl)morpholine] |
| 23 | CCc1c(C)nc2ccccc2c1-n1cnc2c(-c3nnc[nH]3)cc(N3CCOCC3)cc21 [Example 71, 4-[3-(3-ethyl-2-methylquinolin-4-yl)-7-(4H-1,2,4-triazol-3-yl)benzimidazol-5-yl]morpholine] |
| > 10000 | Cc1nc2c(-c3ccncc3)cc(N3CCOCC3)cc2n1-c1ccnc2c(-c3ccncc3)cccc12 [Example 320, 4-[2-methyl-7-pyridin-4-yl-3-(8-pyridin-4-ylquinolin-4-yl)benzimidazol-5-yl]morpholine] |
| 84 | Cc1nnc(-c2cc(N3CCOCC3)cc3c2nc(C)n3-c2cc(-c3cscn3)nc3ccccc23)[nH]1 [Example 104, 4-(2-methyl-4-(5-methyl-4H-1,2,4-triazol-3-yl)-1-(2-(thiazol-4-yl)quinolin-4-yl)-1H-benzo[d]imidazol-6-yl)morpholine] |
| 770 | Cc1nc2c(-c3ccn(S(C)(=O)=O)c3)cc(N3CCOCC3)cc2n1-c1ccnc2c(Cl)cccc12 [Example 264, 4-[3-(8-chloroquinolin-4-yl)-2-methyl-7-(1-methylsulfonylpyrrol-3-yl)benzimidazol-5-yl]morpholine] |
| 22 | Cc1nc2c(-c3cnc(Cl)[nH]3)cc(N3CCOCC3)cc2n1-c1ccnc2c(F)cccc12 [Example 260, 4-(4-(2-chloro-1H-imidazol-5-yl)-1-(8-fluoroquinolin-4-yl)-2-methyl-1H-benzo[d]imidazol-6-yl)morpholine] |
| 50 | Cc1nc2c(-c3cnc(Cl)[nH]3)cc(N3CCOCC3)cc2n1-c1ccnc2c(F)ccc(Cl)c12 [Example 309, 4-[3-(5-chloro-8-fluoroquinolin-4-yl)-7-(2-chloro-1H-imidazol-5-yl)-2-methylbenzimidazol-5-yl]morpholine] |
| 11 | Cc1nc2c(-c3cnc[nH]3)cc(N3CCOCC3)cc2n1-c1ccnc2c(Cl)cccc12 [Example 266, 4-[3-(8-chloroquinolin-4-yl)-7-(1H-imidazol-5-yl)-2-methylbenzimidazol-5-yl]morpholine] |
| 56 | Fc1cccc2c(-n3c(C4CC4)nc4c(-c5ncco5)cc(N5CCOCC5)cc43)ccnc12 [Example 214, 4-[2-cyclopropyl-3-(8-fluoroquinolin-4-yl)-7-(1,3-oxazol-2-yl)benzimidazol-5-yl]morpholine] |
| 210 | Fc1ccc(F)c2c(-n3c(C4CC4)nc4c(-c5nnc(Cl)[nH]5)cc(N5CCOCC5)cc43)ccnc12 [Example 181, 4-[7-(5-chloro-4H-1,2,4-triazol-3-yl)-2-cyclopropyl-3-(5,8-difluoroquinolin-4-yl)benzimidazol-5-yl]morpholine] |
| 14 | CCc1nc2c(-c3nnc[nH]3)cc(N3CCOCC3)cc2n1-c1ccnc2c(F)cccc12 [Example 139, 4-[2-ethyl-3-(8-fluoroquinolin-4-yl)-7-(4H-1,2,4-triazol-3-yl)benzimidazol-5-yl]morpholine] |
| 46 | Cc1nnc(-c2cc(N3CCOCC3)cc3c2nc(C)n3-c2ccnc3c(C(F)F)cccc23)[nH]1 [Example 92, 4-[3-[8-(difluoromethyl)quinolin-4-yl]-2-methyl-7-(5-methyl-4H-1,2,4-triazol-3-yl)benzimidazol-5-yl]morpholine] |
| 24 | Cc1nc2c(-c3cnc(Cl)[nH]3)cc(N3CCOCC3)cc2n1-c1ccnc2c(Cl)cc(F)cc12 [Example 289, 4-[3-(8-chloro-6-fluoroquinolin-4-yl)-7-(2-chloro-1H-imidazol-5-yl)-2-methylbenzimidazol-5-yl]morpholine] |
| 690 | Cc1nc2c(-c3cccnc3)cc(N3CCOCC3)cc2n1-c1ccnc2c(Cl)cccc12 [Example 317, 4-[3-(8-chloroquinolin-4-yl)-2-methyl-7-pyridin-3-ylbenzimidazol-5-yl]morpholine] |
| 46 | Cc1nc2c(-c3nnc[nH]3)cc(N3CCOCC3)cc2n1-c1ccnc2cc(F)cc(F)c12 [Example 131, 4-[3-(5,7-difluoroquinolin-4-yl)-2-methyl-7-(4H-1,2,4-triazol-3-yl)benzimidazol-5-yl]morpholine] |
| 370 | Cc1nc2c(-c3cnc(Cl)[nH]3)cc(N3CCOCC3)cc2n1-c1ccnc2ccccc12 [Example 306, 4-[7-(2-chloro-1H-imidazol-5-yl)-2-methyl-3-quinolin-4-ylbenzimidazol-5-yl]morpholine] |

From patent US10214519B2, “Phosphatidylinositol 3-kinase inhibitors” (Gilead Sciences, Inc., priority 2016, dated 2019)
